The text below walks through data of paper PMC9090415, “Discovery of small molecule inhibitors of Plasmodium falciparum apicoplast DNA polymerase” (Journal of Enzyme Inhibition and Medicinal Chemistry, 2022).

The assay deals with T1, bacteriophage T4 DNA polymerase (Enterobacteria phage T4, UniProt P04415).
T1 construct: made in house
T1 sequence (P04415 1-898): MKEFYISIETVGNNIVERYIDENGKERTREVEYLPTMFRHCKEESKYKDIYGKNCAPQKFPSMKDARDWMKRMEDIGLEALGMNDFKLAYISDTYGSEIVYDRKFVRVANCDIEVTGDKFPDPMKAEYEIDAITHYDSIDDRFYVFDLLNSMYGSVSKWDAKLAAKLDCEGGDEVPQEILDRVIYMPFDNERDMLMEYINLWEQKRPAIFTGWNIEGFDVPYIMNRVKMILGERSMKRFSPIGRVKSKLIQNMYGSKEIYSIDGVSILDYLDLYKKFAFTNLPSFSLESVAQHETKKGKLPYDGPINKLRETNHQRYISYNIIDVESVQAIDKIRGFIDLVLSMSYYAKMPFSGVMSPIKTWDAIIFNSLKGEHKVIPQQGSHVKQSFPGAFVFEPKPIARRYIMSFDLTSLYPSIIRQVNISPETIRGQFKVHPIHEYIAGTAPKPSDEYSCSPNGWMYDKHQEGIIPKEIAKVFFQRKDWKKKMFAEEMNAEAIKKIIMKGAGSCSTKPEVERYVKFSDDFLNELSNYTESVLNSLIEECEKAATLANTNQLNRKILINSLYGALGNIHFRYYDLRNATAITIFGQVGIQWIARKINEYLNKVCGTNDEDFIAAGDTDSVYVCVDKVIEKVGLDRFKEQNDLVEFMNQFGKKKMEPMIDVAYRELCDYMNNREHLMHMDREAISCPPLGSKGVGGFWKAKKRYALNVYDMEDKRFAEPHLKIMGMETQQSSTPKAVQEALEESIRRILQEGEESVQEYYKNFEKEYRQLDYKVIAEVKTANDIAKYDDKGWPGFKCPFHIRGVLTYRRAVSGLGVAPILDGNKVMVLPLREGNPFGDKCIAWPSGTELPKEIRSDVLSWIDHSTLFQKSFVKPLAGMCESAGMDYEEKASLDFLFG
As to the kind of experiment: Counter-screen against bacteriophage T4 DNA polymerase. In kind it is biochemical. The following applies: for % inhibition T4 10' 2.5 / % inhibition T4 10' 5 / % inhibition T4 10' 10 / % inhibition T4 10' 20 / % inhibition T4 10' 40 / % inhibition T4 10' 80: read at 10'. A digest of the protocol: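 Purified T4 DNA polymerase, a B-family enzyme, served as the counter-screen enzyme. Compounds were tested in dose-response format and IC50 values were derived.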

With `N#CC(=NNc1cc(C(F)(F)F)cc(C(F)(F)F)c1)C(=O)c1ccco1` [KU0264276], the “% inhibition T4 10'” value was found to be 9% (DRC-2, concentration 2.5); 9% (DRC-2, concentration 5); 13% (DRC-2, concentration 20); 19% (DRC-2, concentration 40). Further, the “% inhibition T4 40'” value is, setting by setting: (DRC-2, concentration 2.5) 7%; (DRC-2, concentration 5) 9%; (DRC-2, concentration 10) 13%; (DRC-2, concentration 20) 13%; (DRC-2, concentration 40) 19%; (DRC-2, concentration 80) 19%. For the same compound, the “% inhibition T4 90'” value (DRC-2, concentration 5) turned out to be 7%. In addition, the “% inhibition T4 180'” value reads like this: (DRC-2, concentration 40) 13%; (DRC-2, concentration 80) 19%.

Take `Cc1cccc(-c2noc(C(=O)NNC(=O)C(Cl)(Cl)Cl)n2)c1` [KU0266208]: the “% inhibition T4 10' 2.5” value is, setting by setting: (DRC-1, concentration 2.5) 1.001%; (DRC-2, concentration 2.5) 7%. Further, the “% inhibition T4 10' 5” value reads like this: (DRC-1, concentration 5) -2.3946%; (DRC-2, concentration 5) -1.26%. In addition, the “% inhibition T4 10' 10” value is, setting by setting: (DRC-1, concentration 10) 2.959%; (DRC-2, concentration 10) -5%. For the same compound, the “% inhibition T4 10' 20” value is, setting by setting: (DRC-1, concentration 20) 3.222%; (DRC-2, concentration 20) -8%. Also, the “% inhibition T4 10' 40” value (DRC-1, concentration 40) was 8.397% and the “% inhibition T4 10' 40” value (DRC-2, concentration 40) was -12%. Moreover, the “% inhibition T4 10' 80” value runs as follows: (DRC-1, concentration 80) 7.879%; (DRC-2, concentration 80) -4.34%. Moreover, the “% inhibition T4 70' 2.5” value (DRC-1, read at 70', concentration 2.5) is 1.555%. Further, for the setting “DRC-1, read at 70', concentration 5”, the “% inhibition T4 70' 5” value is -1.004%. The “% inhibition T4 70' 10” value (DRC-1, read at 70', concentration 10) came to 1.596%. Under “DRC-1, read at 70', concentration 20”, the “% inhibition T4 70' 20” value turned out to be 0.3208%. The “% inhibition T4 70' 40” value (DRC-1, read at 70', concentration 40) is recorded as 4.827%. The “% inhibition T4 70' 80” value (DRC-1, read at 70', concentration 80) is on record as 4.906%. Moreover, the “% inhibition T4 130' 2.5” value (DRC-1, read at 130', concentration 2.5) is recorded as -1.03%. Further, under “DRC-1, read at 130', concentration 5”, the “% inhibition T4 130' 5” value is -3.982%. Besides, the “% inhibition T4 130' 10” value (DRC-1, read at 130', concentration 10) is on record as -1.107%. Moreover, where the note is “DRC-1, read at 130', concentration 20”, the “% inhibition T4 130' 20” value is recorded as -3.27%. In addition, the “% inhibition T4 130' 40” value (DRC-1, read at 130', concentration 40) turned out to be 2.252%. In addition, the “% inhibition T4 130' 80” value (DRC-1, read at 130', concentration 80) is on record as 3.008%. Besides, where the note is “DRC-2, read at 40', concentration 2.5”, the “% inhibition T4 40' 2.5” value was 7%. For the same compound, for the setting “DRC-2, read at 40', concentration 5”, the “% inhibition T4 40' 5” value was -1.26%. In addition, the “% inhibition T4 40' 10” value (DRC-2, read at 40', concentration 10) is given as -5%. Moreover, the “% inhibition T4 40' 20” value (DRC-2, read at 40', concentration 20) was -8%. In addition, where the note is “DRC-2, read at 40', concentration 40”, the “% inhibition T4 40' 40” value is given as -12%. Further, the “% inhibition T4 40' 80” value (DRC-2, read at 40', concentration 80) was -4.34%. The “% inhibition T4 90' 2.5” value (DRC-2, read at 90', concentration 2.5) came out at 7%. The “% inhibition T4 90' 5” value (DRC-2, read at 90', concentration 5) is on record as -1.21%. Further, the “% inhibition T4 90' 10” value (DRC-2, read at 90', concentration 10) is given as -5%. In addition, the “% inhibition T4 90' 20” value (DRC-2, read at 90', concentration 20) is listed as -8%. For the same compound, where the note is “DRC-2, read at 90', concentration 40”, the “% inhibition T4 90' 40” value is -10%. The “% inhibition T4 90' 80” value (DRC-2, read at 90', concentration 80) is on record as -1.44%. Also, the “% inhibition T4 180' 2.5” value (DRC-2, read at 180', concentration 2.5) is listed as 1.78%. The “% inhibition T4 180' 5” value (DRC-2, read at 180', concentration 5) is recorded as -5.37%. For the same compound, for the setting “DRC-2, read at 180', concentration 10”, the “% inhibition T4 180' 10” value was -9%. Further, the “% inhibition T4 180' 20” value (DRC-2, read at 180', concentration 20) is given as -11%. Further, the “% inhibition T4 180' 40” value (DRC-2, read at 180', concentration 40) was -9%. In addition, where the note is “DRC-2, read at 180', concentration 80”, the “% inhibition T4 180' 80” value amounted to 0.715%.

With `COc1cccc(C(=O)N2CCc3c(nc4cc(-c5ccccc5)[nH]n4c3=O)C2)c1OC` [Molecule 22, COc1c(OC)cccc1C(=O)N1CCc2c(C1)nc1n(c2=O)[nH]c(c1)c1ccccc1], the “% inhibition T4 10'” value by setting is: (DRC-2, concentration 40) -28%; (DRC-2, concentration 80) -28%. Besides, the “% inhibition T4 40'” value by setting is: (DRC-2, concentration 2.5) -13%; (DRC-2, concentration 40) -28%; (DRC-2, concentration 80) -27%. The “% inhibition T4 90'” value (DRC-2, concentration 2.5) is reported as -11%; the “% inhibition T4 90'” value (DRC-2, concentration 10) is listed as -29%; the “% inhibition T4 90'” value (DRC-2, concentration 40) was -28%. For the same compound, the “% inhibition T4 180'” value reads like this: (DRC-2, concentration 2.5) -11%; (DRC-2, concentration 10) -27%; (DRC-2, concentration 20) -29%; (DRC-2, concentration 40) -29%.
